This assay concerns the target T1, human GnRH receptor (Homo sapiens, UniProt P30968).
T1 construct: line established by Prof; Thomas Gudermann; host or cells: CHO cells
T1 sequence (P30968 1-328): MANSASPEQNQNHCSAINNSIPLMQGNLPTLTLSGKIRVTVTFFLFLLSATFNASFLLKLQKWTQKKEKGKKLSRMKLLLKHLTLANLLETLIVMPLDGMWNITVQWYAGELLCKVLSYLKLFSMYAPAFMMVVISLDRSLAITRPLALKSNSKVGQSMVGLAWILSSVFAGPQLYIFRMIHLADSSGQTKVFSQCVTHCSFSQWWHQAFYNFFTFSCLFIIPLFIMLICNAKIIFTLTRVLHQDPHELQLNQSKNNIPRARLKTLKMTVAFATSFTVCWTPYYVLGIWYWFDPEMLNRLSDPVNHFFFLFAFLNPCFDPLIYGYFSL
The assay can be described thus: IP-One HTRF assay (inhibition of GnRH-R activation by buserelin). It is filed as cell-based. The settings on record: IP-One HTRF assay with buserelin (at EC80) stimulation; CHO cells stably expressing human GnRH receptor; tested 20 µM to 1 nM; read-out: Potency IC50. The text has this:
By using homogenous time-resolved fluorescence resonance energy transfer (HTRF), the generation of one component of the GnRH-R signalling cascade can be measured. After stimulation of CHO cells stably expressing human GnRH receptor (established by Prof. Thomas Gudermann, currently University of Marburg, Germany; supplied as frozen cell aliquots by Cell Culture Services, Hamburg, Germany) with the EC80 of the GnRH agonist buserelin, Gq protein-coupled receptor signalling cascade is activated resulting in PLC-dependent cleavage of PIP2 to Inositol-1,4,5-triphosphate (IP3) and Diacylglycerol. The second messenger IP3 is degraded intracellularly to myo-inositol. Inhibition of the final degradation step from Inositol-1-phosphate (IP1) to myo-inositol by addition of lithium chloride leads to accumulation of IP1 in the cells. In cell lysates, IP1 can be detected via an antibody-based HTRF detection technology, where IP1 can displace the FRET acceptor IP1-d2 from binding by Terbium-labelled anti-IP1 antibody as donor resulting in a signal decrease. Compounds were tested for their capability of inhibiting GnRH-R activation by buserelin. For all IP-One HTRF® assays reagents of Cisbio Bioassays (IP-One Tb Jumbo kit, #62IPAPEJ; Cisbio Bioassays, Bagnols sur Cèze Cedex, France) were used.
For the assay, frozen cell aliquots were thawed and a cell suspension (3.33x10^6 cells/ml) containing IP1-d2 (dilution 1:40) was prepared and incubated at 37°C. After 1 h 3 µl of the cell suspension were added to 50 nl of a 100-fold concentrated solution of the test compound in DMSO pre-dispensed in a well of a white low-volume 384-well microtiter plate (Greiner Bio-One, Frickenhausen, Germany). The mixture was incubated for 20 min at 22°C to allow for pre-binding of the test compound to the GnRH-R. The receptor signaling cascade was stimulated by addition of 2 µl buserelin or LHRH (at EC50 or EC80) in stimulation buffer (10 mM Hepes pH 7.4, 1 mM CaCl2, 0.5 mM MgCl2, 4.2 mM KCI, 146 mM NaCl, 5.5 mM α-D-Glucose, 0.05% BSA, 125 mM LiCl (final assay concentration 50 mM) in aqua dest.). Plates were incubated for 1 h at 37°C and 5% carbon dioxide before the cells were lysed by adding 3 µl Terbium-labelled anti-IP1 antibody (1:40) diluted in Conjugate & Lysis buffer as supplied with the kit. After an incubation for 1 h at 22°C to enable complete cell lysis and antibody binding to free IP1 or IP1-d2, plates were measured in an HTRF reader, e.g. a RUBYstar, PHERAstar (both BMG Labtechnologies, Offenburg, Germany) or a Viewlux (PerkinElmer LAS, Rodgau-Jügesheim, Germany). From the fluorescence emissions at 665 nm (FRET) and at 620 nm (background signal of Terbium-antibody), the ratio (emission at 665 nm divided by emission at 620 nm) was calculated and the data were normalized (reaction without test compound = 0% inhibition; all other assay components except agonist = 100% inhibition). On the same microtiter plate, compounds were tested at 10 different concentrations in the range of 20 µM to 1 nM (20 µM, 6.7 µM, 2.2 µM, 0.74 µM, 0.25 µM, 82 nM, 27 nM, 9.2 nM, 3.1 nM and 1 nM; dilution series prepared before the assay at the level of the 100-fold conc. stock solutions by serial 1:3 dilutions in 100% DMSO) in duplicate values for each concentration. By using an in-house software, the IC50 values were calculated by a 4 parameter fit. The data reveal that the compounds of the present invention have antagonist activities on the human GnRH receptor. Within the meaning of the present invention the antagonist activity is reflected by the ability of a compound of the invention to antagonize human GnRH receptor stimulation in IP-One HTRF® assay at least three times the standard deviation over the background level.
(In general: In TR-FRET formats the signal depends on donor and acceptor labels being close together.)

The structures appear in SMILES notation. pIC50: −log10 of the molar value.

For the compound `O=C(NCC1CCCCC1)c1ccc2c(c1)C1(CCC(O)(C(F)(F)F)CC1)C(C1CC1)N2S(=O)(=O)c1ccc(F)cc1` (stereo not drawn) [Example 61, N-(cyclohexylmethyl) -2'-cyclopropyl-1'-[(4-fluorophenyl)sulfonyl]-4-hydroxy-4-(trifluoromethyl)-1',2'-dihydrospiro[cyclohexane-1,3'-indole]-5'-carboxamide], the pIC50 was 6.13.

Turning to `COc1cccc(S(=O)(=O)N2c3ccc(C(=O)Nc4cncc(C)c4)cc3C3(CCC(O)(C(F)(F)F)CC3)C2C2CC2)c1` (stereo not drawn) [Example 39, 2'-cyclopropyl-4-hydroxy-1'-[(3-methoxyphenyl)su Ifonyl]-N-(5-methylpyridin-3-yl)-4-(trifluoromethyl)-1',2'-dihydrospiro[cyclohexane-1,3'-indole]-5'-carboxamide], the pIC50 was 5.77. Turning to `CC(C)=CCC1N(S(=O)(=O)c2ccc(F)cc2)c2ccc(C(=O)Nc3cc[nH]n3)cc2C12CCC(O)(C(F)(F)F)CC2` (stereo not drawn) [Example 12, 1'-[(4-fluorophenyl)sulfonyl]-4-hydroxy-2'-(3-methylbut-2-en-1-yl)-N-(1H-pyrazol-3-yl)-4-(trifluoromethyl)-1',2'-dihydrospiro[cyclohexane-1,3'-indole]-5'-carboxamide], the negative-log IC50 (pIC50) is 5.85. Turning to `COc1cccc(S(=O)(=O)N2c3ccc(C(=O)Nc4cccc(C)c4)cc3C3(CCC(O)(C(F)(F)F)CC3)C2C2CC2)c1` (stereo not drawn) [Example 34, 2'-cyclopropyl-4-hydroxy-1'-[(3-methoxyphenyl)su Ifonyl]-N-(3-methylphenyl)-4-(trifluoromethyl)-1',2'-dihydrospiro[cyclohexane-1,3'-indole]-5'-carboxamide], the pIC50 is 5.47. `COc1cccc(S(=O)(=O)N2c3ccc(C(=O)Nc4cncc(C(F)(F)F)c4)cc3C3(CCC(O)(C(F)(F)F)CC3)C2C2CC2)c1` (stereo not drawn) [Example 40, 2'-cyclopropyl-4-hydroxy-1'-[(3-methoxyphenyl)su Ifonyl]-4-(trifluoromethyl)-N-[5-(trifluoromethyl)pyridin-3-yl]-1',2'-dihydrospiro[cyclohexane-1,3'-indole]-5'-carboxamide]: the pIC50 is 5.25. As to `O=C(NCc1ncccc1C(F)(F)F)c1ccc2c(c1)C1(CCC(O)(C(F)(F)F)CC1)C(C1CC1)N2S(=O)(=O)c1ccc(F)cc1` (stereo not drawn) [Example 65, 2'-cyclopropyl-1'-[(4-fluorophenyl)sulfonyl]-4-hydroxy-4-(trifluoromethyl)-N-{[3-(trifluoromethyl)pyridin-2-yl]methyl}-1',2'-dihydrospiro[cyclohexane-1,3'-indole]-5'-carboxamide], the pIC50 was 6.51. For the compound `O=C(Nc1cccc(Cl)c1)c1ccc2c(c1)C1(CCC(O)(C(F)(F)F)CC1)C(C1CC1)N2S(=O)(=O)c1ccc(F)cc1` (stereo not drawn) [Example 55, N-(3-chlorophenyl)-2'-cyclopropyl-1'-[(4-fluorophenyl)sulfonyl]-4-hydroxy-4-(trifluoromethyl)-1',2'-dihydrospiro[cyclohexane-1,3'-indole]-5'-carboxamide], the pIC50 is 6.15. As to `CS(=O)(=O)c1cccc(NC(=O)c2ccc3c(c2)C2(CCC(O)(C(F)(F)F)CC2)C(C2CC2)N3S(=O)(=O)c2ccc(F)cc2)c1` (stereo not drawn) [Example 46, 2'-cyclopropyl-1'-[(4-fluorophenyl)sulfonyl]-4-hydroxy-N-[3-(methylsulfonyl)phenyl]-4-(trifluoromethyl)-1',2'-dihydrospiro[cyclohexane-1,3'-indole]-5'-carboxamide], the pIC50 is 6.27. With `CC1(O)CCC2(CC1)c1cc(C(=O)NCc3ccccc3Cl)ccc1N(S(=O)(=O)c1ccc(F)cc1)C2C1CC1` (stereo not drawn) [Example 4, N-(2-chlorobenzyl)-2'-cyclopropyl-1'-[(4-fluorophenyl)sulfonyl]-4-hydroxy-4-methyl-1',2'-dihydrospiro[cyclohexane-1,3'-indole]-5'-carboxamide], the pIC50 is 7.13.

The term pIC50 denotes the IC50 on a negative log10 scale, so that one unit is a factor of ten.
